Data on four compounds can be found in patent US11559498B2, “Compositions and methods for in vivo lung and blood SNO repletion” (UNIVERSITY HOSPITALS CLEVELAND MEDICAL CENTER, priority 2020, dated 2023).

The test system of data set [1] is GSNO levels in the lungs. Kind of data set: GSNO levels in the lungs after inhalation of ENO. Type of data set: in vivo. As to conditions: FIG. 1A. The source says:
(§1) 1. Mice are either placed in chambers where ambient oxygen and ENO levels (1-100 ppm) are controlled, or mice are ventilated as in 2. below.
(§2) 2. Large animals (pigs/dogs) are ventilated. ENO was mixed into the ventilation circuit using a custom-made gas-blending device (1-100 ppm). One hundred ppm ENO was selected as the maximum dose based on the amounts of metHb (<5%).
(§3) 3. Humans Each subject was fitted with an on-demand nonrebreather mask to regulate oxygen (FiO2) and ENO delivery. ENO was blended at 1-100 ppm.

Data set [2] has as its system lung inflammation (BALF). Nature of the data set: Hyperoxic injury-induced lung inflammation in mice. Type of data set: in vivo. As for the experimental part: as §1
Bronchoalveolar lavage fluid (BAL), cell and protein content, differential cell analysis, lung fixation and histological sectioning, were performed as previously described (Groves, Am. J. Respir Cell Mol. Biol. 47, 776-783 (2012); Lien Van Hoecke J Vis Exp. 2017; (123): 55398)).

The subject of data set [3] is SNO-Hb and muscle StO2. Nature of the data set: Hypoxic humans dosed with ENO: muscle oxygenation and SNO-Hb. Particulars: at study completion, FiO2 fixed at 0.12, FIG. 2. Type of data set: in vivo.
Source text: as §3
(§4) Photolysis-chemiluminescence was used to quantify RBC SNO-Hb levels before and during ENO exposure. Blood was obtained through arterial lines and venipuncture. Method of sample preparation and measurement is as described in Hausladen (ref: Hausladen A et al. Assessment of nitric oxide signals by triiodide chemiluminescence. Proc. Natl. Acad. Sci. U.S.A 104, 2157-2162 (2007)).

The test system of data set [4] is isolated human kidneys. Kind of data set: Isolated human kidneys treated with ENO.
The subject of data set [5] is SNO-Hb. Nature of the data set: SNO-Hb levels in the blood of humans after inhalation of ENO. As to conditions: FIG. 1B. Type of data set: in vivo.
Source text: as §3, §4

Data set [6] in a line: metHb during ventilation with ENO. As to conditions: 100 ppm ENO (maximum dose), ventilated large animals. It counts as in vivo, pigs/dogs.
Source text: as §2

Data set [7] has as its system lung injury. Kind of data set: Rat ischemia/reperfusion (IR) preparation, lung injury. Type of data set: in vivo.
Data set [8] deals with airway hyper-responsiveness. Kind of data set: Mouse airway hyper-responsiveness following hyperoxia. It counts as in vivo. Particulars: hyperoxia 60% oxygen for 21 days, FIG. 6.
The subject of data set [9] is porcine circovirus type 2 (PCV2). Nature of the data set: PCV2 infection and replication. It counts as cell-based.
The conditions of data set [10]: cited from earlier work.

For `CCON=O` [ENO, ethyl nitrite], the “GSNO levels in the lungs over inhaled NO” value in data set [1] (inhalation of ENO compared with inhaled NO) is reported as “several fold”. In [1] (inhalation of ENO), the “GSNO levels in the lungs” value is “significantly increases”. For the same compound, in data set [2] (ENO for 8 days, FIG. 3A), the “lung (BALF) leukocyte concentrations” value is reported as “decreased” and the “lung (BALF) neutrophil concentrations” value is “decreased”. The “accumulation of cytokine-induced neutrophil chemoattractant-1” value in data set [2] (FIG. 3B) was “attenuated”. The “expression of cytokine-induced neutrophil chemoattractant-1” value in data set [2] (FIG. 3C) is reported as “attenuated”. Moreover, in [3], the SNO-Hb levels result is reported as “doubled” and the “muscle StO2 (near infrared spectroscopy)” value is “at normoxic (prehypoxic) levels”. In addition, the “tissue SNO levels” value in data set [4] (FIG. 4A) is “increased”. In data set [4] (FIG. 4B), the “release of IL-10” value is on record as “increased”. For the same compound, the “level of IL-10” value in data set [4] (FIG. 4C) was “increased”. The “SNO-Hb levels in the blood” value in data set [5] was “significantly increases”. For the same compound, the “amounts of metHb” value in data set [6] is recorded as under 5%.
`N[C@@H](CCC(=O)N[C@@H](CSN=O)C(=O)NCC(=O)O)C(=O)O` [GSNO]: in data set [7] (FIG. 5A), the lung injury result is given as “significantly reduced”. For the same compound, the “expression of iNOS” value in data set [7] (FIG. 5B) is on record as “significantly reduced”. Also, the “expression of NF-kappaB” value in [7] (FIG. 5C) is “significantly reduced”. In [8] (inhalation), the airway hyper-responsiveness entry is “attenuated”. Besides, the “infection of PCV2” value in [9] (FIG. 7A) is given as “significantly reduces”. Moreover, the “replication of PCV2” value in data set [9] (FIG. 7B) was “significantly reduces”.
In the case of `Cc1cc(C(N)=O)ccc1-n1c(CCC(=O)O)ccc1-c1ccc(-n2ccnc2)cc1` [N6022], the airway hyper-responsiveness result in data set [8] (ip administration) was “attenuated”.
In the case of `CC(=O)N[C@@H](CS)C(=O)O` [N-acetylcysteine], the “solubility in chloroform and ether” value in data set [10] (chloroform and ether) is on record as “practically insoluble”. In addition, the “solubility in water and alcohol” value in data set [10] (water and alcohol) is “soluble”.
